Experimental findings from US6465433B1, “Boronic ester and acid compounds, synthesis and uses” (Millennium Pharmaceuticals, Inc., priority 1994, dated 2002) are described below.

Where a SMILES comes first, the peptide text is derived from it. The star is where a group is joined. Cbz = O=C(OCc1ccccc1)*

The target in assay [1] is SDS-activated 20S proteasome from rabbit muscle (Oryctolagus cuniculus, UniProt G1SU71+G1T4Q9). As to the kind of experiment: Kinetic assay: inhibition of the 20S proteasome. The format is biochemical. How it is done:
(§1) P, AA^1, AA^2, AA^3, and Z^1 and Z^2 represent the structures present on formula (1) or (2). The protocol for the kinetic assay described in Tables II-V is as described in Rock et al., Cell 78:761-771 (1994). In these tables, Ki values are reported, which are dissociation constants for the equilibrium that is established when enzyme and inhibitor interact to form the enzyme:inhibitor complex. The reactions were performed using SDS-activated 20S proteasome from rabbit muscle. The substrate used was Suc-LLVY-AMC.

A further assay relates to NF-κB. The assay can be described thus: Activation of NF-κB, electrophoretic mobility shift assay in TNF-α stimulated MG63 osteosarcoma cells. The format is cell-based. To be noted: pretreatment for 1 hour, PRDII probe, FIG. 2. How it is done: Compounds can be tested for their ability to inhibit the activation of NF-κB by means of a DNA binding assay (Palombella, et al., Cell 78:773 (1994)). Whole-cell extracts are prepared from untreated or TNF-α treated cells that have been pretreated for 1 hour with the test compound. The DNA binding activity of NF-κB is measured by an electrophoretic mobility shift assay using the PRDII probe from the human IFN-β gene promoter.
This assay was performed as previously described (Palombella, et al. Cell, 78:773-785 (1994)). MG63 osteosarcoma cells were stimulated by treatment with TNF-α for the designated times. Whole cell extracts were prepared and analyzed by electrophoretic mobility shift assay using the PRDII probe from the human IFN-β gene promoter.
Background: In EMSA bound probe runs differently from free probe, usually more slowly.

Assay [2] concerns the target Human Pancreatic Chymotrypsin. As to the kind of experiment: Kinetic assay: inhibition of Human Pancreatic Chymotrypsin. To be noted: Table V. The class given is biochemical.
The target in the next assay is T1, Human Leukocyte Elastase (Homo sapiens, UniProt P08246).
T1 sequence (P08246 30-267): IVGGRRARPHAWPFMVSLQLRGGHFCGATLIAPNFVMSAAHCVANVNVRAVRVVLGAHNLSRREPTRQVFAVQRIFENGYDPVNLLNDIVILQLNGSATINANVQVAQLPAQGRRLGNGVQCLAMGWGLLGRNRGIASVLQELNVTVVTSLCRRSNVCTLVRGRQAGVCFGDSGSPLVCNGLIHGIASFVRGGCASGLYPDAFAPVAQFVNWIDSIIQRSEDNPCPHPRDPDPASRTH
As to the kind of experiment: Kinetic assay: inhibition of Human Leukocyte Elastase. Conditions: Table V. The class given is biochemical.

The target in the next assay is Cathepsin B (Homo sapiens, UniProt P07858). The assay can be described thus: Kinetic assay: inhibition of Cathepsin B. The format is biochemical. Conditions: Table IV.
From the text: [Worded in the source for another target; this target is reported under the same test.] as §1, with “Table II summarizes results from kinetic experiments that measured the inhibition of the 20S proteasome by compounds having the formula of compound (1) or (2). P,” for “P,”

For a further assay, the system named is C2C12 cells. The assay can be described thus: Inhibition of protein degradation in C2C12 cells. The format is cell-based, mouse. Conditions: Mus musculus, C2C12; 35S-methionine labelled cells; percent decrease in TCA soluble radioactivity; media with 50% serum. How it is done:
One approach to testing drug candidates for their ability to inhibit the ATP-ubiquitin-dependent degradative process is to measure proteolysis in cultured cells (Rock, et al., Cell 78:761 (1994)). For example, the degradation of long-lived intracellular proteins can be measured in mouse C2C12 myoblast cells. Cells are incubated with ^35S-methionine for 48 hours to label long-lived proteins and then chased for 2 hours with medium containing unlabeled methionine. After the chase period, the cells are incubated for 4 hours in the presence or absence of the test compound. The amount of protein degradation in the cell can be measured by quantitating the trichloroacetic acid soluble radioactivity released from the pre-labeled proteins into the growth medium (an indicator of intracellular proteolysis).
C2C12 cells (a mouse myoblast line) were labelled for 48 hrs with ^35S-methionine. The cells were then washed and preincubated for 2 hrs in the same media supplemented with 2 mM unlabelled methionine. The media was removed and replaced with a fresh aliquot of the preincubation media containing 50% serum, and a concentration of the compound to be tested. The media was then removed and made up to 10% TCA and centrifuged. The TCA soluble radioactivity was counted. Inhibition of proteolysis was calculated as the percent decrease in TCA soluble radioactivity.

The next assay addresses T2, Cathepsin G (Homo sapiens, UniProt P08311).
T2 sequence (P08311 21-244): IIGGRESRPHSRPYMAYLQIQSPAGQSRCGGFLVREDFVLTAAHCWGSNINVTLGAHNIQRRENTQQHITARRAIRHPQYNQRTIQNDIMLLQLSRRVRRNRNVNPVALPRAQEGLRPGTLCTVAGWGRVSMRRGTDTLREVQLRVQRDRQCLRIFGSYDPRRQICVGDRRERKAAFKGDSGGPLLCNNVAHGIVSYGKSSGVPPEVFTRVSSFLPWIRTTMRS
The assay can be described thus: Kinetic assay: inhibition of Cathepsin G. Conditions: Table V. The class given is biochemical.

The test system of the next assay is mice. As to the kind of experiment: DTH response (contact sensitivity, ear swelling) in mice. The format is in vivo, mouse. Conditions: oral, ear swelling approximately 18 hours after challenge. An excerpt:
Compounds can also be tested for their ability to inhibit a delayed-type hypersensitivity response in mice. Contact hypersensitivity is a manifestation of an in vivo T-cell mediated immune response (Friedmann, Curr. Opinion Immunology, 1:690693 (1989)). Although the exact molecular mechanisms that regulate the cellular interactions and vascular changes involved in the response remain obscure, it is clear that the process is dependent upon the interplay of soluble mediators, adhesion molecules, and the cytokine network (Piguet, et al., J. Exp. Med. 173:673-679 (1991); Nickoloff, et al. J. Invest. Dermatol. 94:151S-157S (1990)). NF-κB, by mediating events such as the production of cytokines and the induction and utilization of cell-surface adhesion molecules, is a central and coordinating regulator involved in immune responses.
Naive nice were sensitized by the application of 20 μL of a 0.5% (v/v) solution of 2,4-dinitrofluorobenzene in 4:1 acetone/olive oil to both of the rear limb footpads. This procedure is performed on two consecutive days, which are referred to as days 0 and 1.
The efferent phase of the contact sensitivity response was elicited on day 5 by the application of 10 μL of a 0.2% (v/v) solution of 2,4-dinitrofluorobenzene in 4:1 acetone/olive oil to both sides of the left ear. The contralateral control ear was treated on both sides with 10 μL of vehicle only. The mice were lightly anaesthetized for this procedure by the intraperitoneal (i.p.) injection of a mixture of ketamine.(80 mg/kg, Henry Schein) and xylazine (16 mg/kg, Henry Schein). […]
Approximately 18 hours after the challenge, ear swelling was determined by measuring both the control and the experimental ear using a Mitutoyo Digital micrometer. The absolute difference in thickness of the experimental (left) ears vs. the control (right) ears was determined for each treatment group. Efficacy was determined by comparing this difference in thickness to the difference calculated for the vehicle control group.

Where [3] appears, read: Table II, SDS-activated 20S proteasome from rabbit muscle, substrate Suc-LLVY-AMC.

On to `CSCCC(C=O)NC(=O)C(CC(C)C)NC(=O)C(CC(C)C)NC(C)=O` [MG-102, Ac-L-Leu-L-Leu-L-Met-H, reference compound] (Ac-Leu-Leu-Met-aldehyde; configuration not given here), for which the “activity against the 20S proteasome” value in assay [1] is “inactive”. The NF-κB binding activity result with NF-κB is “did not inhibit”.
As to `CC(C)C[C@@H](C=O)NC(=O)[C@H](CC(C)C)NC(=O)[C@H](CC(C)C)NC(=O)OCc1ccccc1` [MG-132, Cbz-L-Leu-L-Leu-L-Leu-H] (Cbz-Leu-Leu-Leu-aldehyde), the NF-κB binding activity result in the assay with NF-κB is “inhibited”.
Take `CC(C)C[C@H](NC(=O)[C@H](CC(C)C)NC(=O)[C@H](CC(C)C)NC(=O)OCc1ccccc1)B(O)O` [MG-262]: the Ki (in general, the dissociation constant of the complex between target and ligand, obtained from inhibition or displacement) in assay [2] is 7 nM; on Human Leukocyte Elastase it was 15 nM; on Cathepsin B, 6100 nM; on Cathepsin G, 55 nM; in assay [1] (setting [3]), 0.035 nM; in assay [1] (Table IV), 0.035 nM. In assay [1] (Table V), this molecule registered a Ki of 0.03 nM. Besides, the IC50 (commonly the concentration needed to halve the response being measured) in the assay on C2C12 cells turned out to be 280 nM.
Turning to `CC(C)C[C@H](NC(=O)[C@H](Cc1cccc2ccccc12)NC(=O)OCc1ccccc1)B1O[C@@H]2C[C@@H]3C[C@@H](C3(C)C)[C@]2(C)O1` [MG-267], the Ki in assay [2] turned out to be 2300 nM; on Human Leukocyte Elastase, 150 nM; at Cathepsin G, 33000 nM; in assay [1] (setting [3]), 0.1 nM; in assay [1] (Table V) it was 0.1 nM.
Regarding `CC(C)C[C@H](NC(=O)[C@H](Cc1cccc2ccccc12)NS(=O)(=O)c1cccc2cccnc12)B(O)O` [MG-296, N-(8-quinoline)sulfonyl-β-(1-naphthyl)-L-alanine-L-leucine boronic acid], the Ki on Human Leukocyte Elastase worked out at 36 nM; at Cathepsin B, 4000 nM; on Cathepsin G, 9200 nM; in assay [1] (setting [3]) it was 1.7 nM; in assay [1] (Table IV), 1.7 nM; in assay [1] (Table V) it was 1.7 nM. For the same molecule, in the assay on C2C12 cells, the IC50 was 738 nM. For the same molecule, in the assay with mice (dose 50 mg/kg), the “% Inhibition of the DTH response” value is 60%.
Turning to `CC(C)C[C@H](NC(=O)[C@H](Cc1ccccc1)NC(=O)N1CCOCC1)B(O)O` [MG-309, N-(4-morpholine)carbonyl-L-phenylalanine-L-leucine boronic acid], the inhibition constant Ki was found to be 7000 nM on Human Leukocyte Elastase; 132000 nM on Cathepsin B; 4800 nM at Cathepsin G; 0.82 nM in assay [1] (setting [3]); 0.82 nM in assay [1] (Table IV); 0.82 nM in assay [1] (Table V). Besides, in the assay on C2C12 cells, the IC50 was 210 nM. Moreover, the “% Inhibition of the DTH response” value in the assay with mice (dose 3 mg/kg) was 40%.
Take `CC(C)C[C@H](NC(=O)[C@H](Cc1ccccc1)NC(=O)c1cnccn1)B(O)O` [MG-341, N-(2-pyrazine)carbonyl-L-phenylalanine-L-leucine boronic acid]: affinity at Cathepsin B was put at a Ki of 160000 nM. In addition, in the assay with C2C12 cells, the IC50 is 69 nM. In addition, the “% Inhibition of the DTH response” value with mice (dose 3 mg/kg) came to 90%.
